# Laboratory results published in US20230310453A1, “METHODS FOR EXTRACTING NEUTROPHIL SERINE PROTEASES AND TREATING DIPEPTIDYL PEPTIDASE 1-MEDIATED CONDITIONS” (INSMED, INC., priority 2020, published 2023).
# Legend:
# Format in all cases: in vivo, human
# active PR3 [1] = experiment: Active PR3 concentration in patients' WBC samples (kinetic PR3 assay); conditions: for % reduction from baseline in WBC samples, active PR3: week 4, reduction in arithmetic mean
# Experimental: (§1) Except for using an exogenous peptide substrate specific for PR3 instead of NE, the PR3 kinetic assay is based on the same principle as the NE kinetic assay described above. Cleavage of PR3 Substrate by PR3 present in the sample generated the fluorophore reaction product 2-Aminobenzoyl or Anthraniloyl (Abz). The initial rate of this reaction, which is proportional to the amount of active PR3 in the sample, was measured in RFU and converted to the concentration of active PR3 in the sample. Specifically, standards were created via serial dilution of Human PR3 Stock Protein (Sigma, Cat. No SRP6309-25UG, see Table 1A) in a standard diluent which matched the ratio of lysis buffer to Enzyme Buffer (sample diluent) of the sample dilutions on a multi-well plate. Sample dilutions were created on the plate using Enzyme Buffer as the diluent. A 1:20 dilution of either DMSO or PR3 inhibitor (Abcam, Cat. No ab146184, final concentration 500 μM) in Assay Buffer was added to all wells and allowed to incubate at 37° C. for 15 minutes. Addition of DMSO was used as a placeholder in case future testing required addition of inhibitors for subtraction of nonspecific activity-induced cleavage. Following incubation, PR3 Substrate (Abz-VADCADQ-Lys(DNP), final concentration 100 μM) diluted in Assay Buffer was added to the sample and control wells in that order, and briefly mixed via pipetting 2-3 times. The plate was immediately read at 340/430 nm (Excitation/Emission) post substrate addition in kinetic mode every 5 minutes for up to 3 hours (minimum 30 minutes) at 37° C. on a BioTek Gen5 Plate Reader. The raw data of the readings were exported into an Excel file for data analysis described below.
# (§2) After NE and PR3 are extracted from a WBC pellet using a multi-step repeated pellet lysis process, total NE and PR3 activity in cell lysates may be determined by individually assaying each cell lysate from each lysis step for the enzyme activity and calculating the total activity. Alternatively, the total activity may be determined by pooling the cell lysates for a single NE or PR3 activity assay. […]
# active CatG = experiment: Active CatG concentration in patients' sputum samples (kinetic CatG assay); conditions: for % reduction from baseline in sputum samples, active CatG: week 4, reduction in geometric mean
# Experimental: CatG activity was measured in an enzymatic assay using an exogenous peptide substrate. Cleavage of the substrate generated the chromophore or fluorophore reaction product, p-Nitroaniline (pNA), 6-Carboxytetramethylrhodamine (6-TAMRA) or 7-Methoxycoumarin-4-acetic acid (MCA). The initial rate of this reaction is proportional to the amount of active CatG in a sample and was measured in absorbance (ABS) or fluorescence (RFU), depending on the substrate, and converted to the concentration of active CatG in the sample. Specifically, standards were created via serial dilution of stock human CatG protein (Sigma, Cat. No C4428-.25UN) in a standard diluent which matched the ratio of lysis buffer to Enzyme Buffer (sample diluent) of the sample dilutions on plate. Sample dilutions were created on the plate using Enzyme Buffer as the diluent and/or run neat. […] The plate was immediately read at appropriate wavelength according to Table 1B post substrate addition in kinetic mode every 5 minutes for 1.5 hours at 37° C. on a BioTek's Synergy Neo or BioTek's Synergy HIM plate reader with Gen5 Software. […]
# (§3) In the trial, subjects were randomized in a 1:1:1 ratio to 3 treatment arms to receive either (i) 10 mg brensocatib once daily; (ii) 25 mg brensocatib once daily, or (iii) matching placebo once daily. […] The time to the first pulmonary exacerbation (primary end point), the rate of pulmonary exacerbations (secondary end point), change in concentration of active NE in sputum, and safety were assessed. […]
# In this example, we further determined the changes from baseline in the concentrations of active PR3 and CatG in the same sputum samples obtained from the patients in the three treatment arms using the kinetic PR3 and CatG assays described in the previous examples, and compared the changes with those of active NE. Additionally, we extracted NE and PR3 from the white blood cells (WBCs) derived from the patients' blood samples, and determined the changes from baseline in the concentrations of active NE and PR3 in the WBC samples using the methods described in Example 7. […]
# active NE [2] = experiment: Active NE concentration in patients' sputum samples; conditions: for % reduction from baseline in sputum samples, active NE: week 4, reduction in geometric mean
# Experimental: (§4) In the NE kinetic assay, an exogenous peptide substrate with high specificity for NE (shown in Table 1A) was cleaved by NE present in the sample, generating a fluorophore reaction product 7-amino 4-methyl coumarin (AMC). The initial rate of this reaction, which is proportional to the amount of active NE in the sample, was measured in relative fluorescence units (RFU) and converted to the concentration of active NE in the sample. Specifically, standards were created via serial dilution of Human NE Stock Protein (Sigma, Cat. No E8140-1UN, see Table 1A) in a standard diluent, which matched the ratio of lysis buffer to Enzyme Buffer (sample diluent) of the sample dilutions on a multi-well plate. Sample dilutions were created on the plate using Enzyme Buffer as the diluent. A 1:25 dilution of either DMSO or NE inhibitor (Abcam, Cat. No ab142154, final concentration 80 μM) in Assay Buffer was added to all wells and allowed to incubate at 37° C. for 15 minutes. […] The plate was immediately read at 350/450 nm (Excitation/Emission) post substrate addition in kinetic mode every 5 minutes for up to 3 hours (minimum 30 minutes) at 37° C. on a BioTek Gen5 Plate Reader. The raw data of the readings were exported into an Excel file for data analysis described below.
# as §3
# (§5) In this example, we further determined the changes from baseline in the concentrations of active PR3 and CatG in the same sputum samples obtained from the patients in the three treatment arms using the kinetic PR3 and CatG assays described in the previous examples, and compared the changes with those of active NE. […]
# active NE [3] = experiment: Active NE concentration in patients' WBC samples (kinetic NE assay)
# Experimental: as §4, §2, §3
# [4] = test system: patients with non-cystic fibrosis bronchiectasis (NCFBE); experiment: Phase 2 randomized, double-blind, placebo-controlled trial: pulmonary exacerbations; conditions: for reduction in the frequency of pulmonary exacerbations as compared to placebo: once daily 24 weeks; for time to the first pulmonary exacerbation (primary end point): vs placebo
# Excerpt: We have conducted a phase 2, randomized, double-blind, placebo-controlled trial to assess the efficacy, safety and tolerability, and pharmacokinetics of (2S)—N-{(1S)-1-cyano-2-[4-(3-methyl-2-oxo-2,3-dihydro-1,3-benzoxazol-5-yl) phenyl] ethyl}-1,4-oxazepane-2-carboxamide (brensocatib) administered once daily for 24 weeks in patients with non-cystic fibrosis bronchiectasis (NCFBE). See the details and results of the trial in N Engl J Med. 383(22):2127-2137 (2020); incorporated herein by reference in its entirety for all purposes.
# In the trial, subjects were randomized in a 1:1:1 ratio to 3 treatment arms to receive either (i) 10 mg brensocatib once daily; (ii) 25 mg brensocatib once daily, or (iii) matching placebo once daily. Following a screening visit (Visit 1) and a screening period of up to 6 weeks, subjects were randomized at Visit 2 (Day 1, “Baseline”) and returned thereafter for study visits at 2 weeks (Visit 3), 4 weeks (Visit 4), 8 weeks (Visit 5), 12 weeks (Visit 6), 16 weeks (Visit 7), 20 weeks (Visit 8), 24 weeks (Visit 9, end of treatment) and 28 weeks (Visit 10, end of study). During each visit, assessments and procedures were performed, including collection of blood and sputum samples at baseline and weeks 2, 4, 12, 24, and 28 for biomarker assessment. Study treatment occurred between Visits 2-9. The time to the first pulmonary exacerbation (primary end point), the rate of pulmonary exacerbations (secondary end point), change in concentration of active NE in sputum, and safety were assessed. […] Specifically, patients treated with brensocatib experienced a 36% reduction in the 10 mg arm (p=0.04) and a 25% reduction in the 25 mg arm (p=0.17).
# active PR3 [5] = experiment: Active PR3 concentration in patients' sputum samples (kinetic PR3 assay); conditions: for % reduction from baseline in sputum samples, active PR3: week 4, reduction in geometric mean
# Experimental: as §1, with “Addition of DMSO was used as a placeholder in case future testing required addition of inhibitors for subtraction of nonspecific activity-induced cleavage. Following incubation, PR3 Substrate (Abz-VADCADQ-Lys(DNP), final concentration 100 μM) diluted in Assay Buffer was added to the sample and control wells in that order, and briefly mixed via pipetting 2-3 times.” left out
# as §3, §5
compound,measurement,setting,value
"Cn1c(=O)oc2ccc(-c3ccc(C[C@@H](C#N)NC(=O)[C@@H]4CNCCCO4)cc3)cc21 [brensocatib, (2S)—N-{(1S)-1-cyano-2-[4-(3-methyl-2-oxo-2,3-dihydro-1,3-benzoxazol-5-yl)phenyl]ethyl}-1,4-oxazepane-2-carboxamide]",change from baseline in concentration of active PR3 in WBC samples (time course),"active PR3 [1]; 10 mg and 25 mg arms, FIG. 14B",reduced by brensocatib treatment to a lesser extent than the active NE concentrations
same,"% reduction from baseline in WBC samples, active PR3",active PR3 [1]; 10 mg daily,No reduction
same,"% reduction from baseline in WBC samples, active PR3",active PR3 [1]; 25 mg daily,34%
same,change from baseline in sputum concentration of active CatG (time course),"active CatG; 10 mg and 25 mg arms, FIG. 13C",reduced by brensocatib treatment by week 4 in a dose-dependent manner
same,"% reduction from baseline in sputum samples, active CatG",active CatG; 10 mg daily,90%
same,"% reduction from baseline in sputum samples, active CatG",active CatG; 25 mg daily,93%
same,change from baseline in sputum concentration of active NE (time course),"active NE [2]; 10 mg and 25 mg arms, FIG. 13A",reduced by brensocatib treatment by week 4 in a dose-dependent manner
same,"% reduction from baseline in sputum samples, active NE",active NE [2]; 10 mg daily,86%
same,"% reduction from baseline in sputum samples, active NE",active NE [2]; 25 mg daily,91%
same,change from baseline in concentration of active NE in WBC samples (time course),"active NE [3]; 10 mg and 25 mg arms, 24-week treatment, FIG. 14A",reduced by brensocatib treatment by week 4 in a dose-dependent manner
same,"% reduction from baseline in WBC samples, active NE","active NE [3]; 10 mg daily, week 4, reduction in arithmetic mean",19%
same,time for reduced active NE concentrations in WBC samples to recover to baseline levels after the end of the treatment period,"active NE [3]; after 24-week treatment, FIG. 14A",about 4 weeks
same,reduction in the frequency of pulmonary exacerbations as compared to placebo,"[4]; 10 mg arm, p=0.04",36%
same,time to the first pulmonary exacerbation (primary end point),"[4]; 10 mg once daily for 24 weeks, p=0.03",prolonged the time to the first exacerbation
same,reduction in the frequency of pulmonary exacerbations as compared to placebo,"[4]; 25 mg arm, p=0.17",25%
same,time to the first pulmonary exacerbation (primary end point),"[4]; 25 mg once daily for 24 weeks, p=0.04",prolonged the time to the first exacerbation
same,change from baseline in sputum concentration of active PR3 (time course),"active PR3 [5]; 10 mg and 25 mg arms, FIG. 13B",reduced by brensocatib treatment by week 4 in a dose-dependent manner
same,"% reduction from baseline in sputum samples, active PR3",active PR3 [5]; 10 mg daily,21%
same,"% reduction from baseline in sputum samples, active PR3",active PR3 [5]; 25 mg daily,53%
